Patent publication US7432303B2, “Chalcone and its analogs as agents for the inhibition of angiogenesis and related disease states” (James and Emory University, priority 1999, dated 2008)

Tested on: SVR cells
Assay: SVR cell assay: cell numbers counted at 48 hours, percent inhibition versus control
Format: cell-based, murine
Details: 10,000 SVR cells in 24 well dish, counted at 48 hours; for Percent Inhibition at a Specified Density (μg/ml): 1 / inhibition at 1 µg/mL: 1 μg/ml; for Percent Inhibition at a Specified Density (μg/ml): 3 / inhibition at 3 µg/mL: 3 μg/ml; for Percent Inhibition at a Specified Density (μg/ml): 6 / inhibition at 6 µg/mL: 6 μg/ml; for inhibition at 1 µg/mL / inhibition at 3 µg/mL / inhibition at 6 µg/mL: Mus musculus; for inhibition at 1 µg/mL: read-out: Percent Inhibition at a Specified Density (μg/ml): 1; for inhibition at 3 µg/mL: read-out: Percent Inhibition at a Specified Density (μg/ml): 3; for inhibition at 6 µg/mL: read-out: Percent Inhibition at a Specified Density (μg/ml): 6; for Percent Inhibition at a Specified Density (μg/ml): 9: 9 μg/ml
Procedure: In the case of testing the anti-angiogenic/anti-cancer activity of compounds according to the present invention, an assay based on SVR cells may be employed. […] The cell numbers are counted and compared against controls. Percent inhibition is readily determined from the data obtained.
10,000 SVR cells were seeded in a 24 well dish [Arbiser, et al., J. Am. […] The cell numbers were counted at 48 hours.

## O=C(C=Cc1ccccn1)c1ccccc1 [Compound 47, 1-Phenyl-3-(2-pyridyl)propenone]
  Percent Inhibition at a Specified Density (μg/ml): 1: 40.7%
  Percent Inhibition at a Specified Density (μg/ml): 3: 89.1%
  Percent Inhibition at a Specified Density (μg/ml): 6: 96.9%

## O=C(/C=C/c1ccccc1)c1c(F)c(F)c(F)c(F)c1F [Compound 36, 2′,3′,4′,5′,6′-Pentafluorochalcone]
  inhibition at 1 µg/mL: 6.6%
  inhibition at 3 µg/mL: 55.6%
  inhibition at 6 µg/mL: 88.7%

## O=C(/C=C/c1ccccc1)c1ccccc1 [Compound 1, Chalcone]
  inhibition at 1 µg/mL: 71.6%
  inhibition at 3 µg/mL: 92.8%
  inhibition at 6 µg/mL: 94.4%

## O=C(C=Cc1ccccc1)c1ccc[nH]1 [Compound 49, 3-Phenyl-1-(2-pyrrolyl)propenone]
  Percent Inhibition at a Specified Density (μg/ml): 1: 8.3%
  Percent Inhibition at a Specified Density (μg/ml): 3: 11.4%
  Percent Inhibition at a Specified Density (μg/ml): 6: 19.4%

## Cc1ccc(C(=O)/C=C/c2ccc(C(C)C)cc2)cc1 [Compound 26, 4-Isopropyl-4′-methylchalcone]
  inhibition at 1 µg/mL: 19.5%
  inhibition at 3 µg/mL: 14.2%
  inhibition at 6 µg/mL: 59.2%

## O=c1ccoc2ccccc12 [Compound 15, Chromone, reference compound]
  inhibition at 1 µg/mL: 20.6%
  inhibition at 3 µg/mL: 8.2%
  inhibition at 6 µg/mL: 20.8%

## COc1cccc(OC)c1/C=C/C(=O)c1c(OC)cccc1OC [Compound 37, 2,2′,6,6′-Tetramethoxychalcone]
  inhibition at 1 µg/mL: 36.2%
  inhibition at 3 µg/mL: 49.2%
  inhibition at 6 µg/mL: 39.2%

## N#Cc1coc2c(Cl)cc(Cl)cc2c1=O [Compound 16, 6,8-Dichloro-3-cyanochromone, reference compound]
  inhibition at 1 µg/mL: 15.2%
  inhibition at 3 µg/mL: 0%
  inhibition at 6 µg/mL: 0%

## O=C(C=Cc1c2ccccc2cc2ccccc12)c1c2ccccc2cc2ccccc12 [Compound 53, 1,3-Di(9-Anthryl)propenone]
  Percent Inhibition at a Specified Density (μg/ml): 1: 0.0%
  Percent Inhibition at a Specified Density (μg/ml): 3: 0.0%
  Percent Inhibition at a Specified Density (μg/ml): 6: 4.7%

## O=C(C=Cc1ccccc1)c1ccco1 [Compound 44, 1-(2-Furyl)-3-phenylpropenone]
  Percent Inhibition at a Specified Density (μg/ml): 1: 28.2%
  Percent Inhibition at a Specified Density (μg/ml): 3: 57.7%
  Percent Inhibition at a Specified Density (μg/ml): 6: 90.2%

## 2-(2-Naphthylidene)tetralone [Compound 71]
  Percent Inhibition at a Specified Density (μg/ml): 3: 82.8%
  Percent Inhibition at a Specified Density (μg/ml): 6: 88.7%
  Percent Inhibition at a Specified Density (μg/ml): 9: 87.1%

## O=C(O)/C=C/c1ccccc1 [Compound 10, trans-Cinnamic Acid, reference compound]
  inhibition at 1 µg/mL: 18.6%
  inhibition at 3 µg/mL: 14.1%
  inhibition at 6 µg/mL: 69.6%

## O=C(/C=C/c1c(Cl)cccc1Cl)/C=C/c1c(Cl)cccc1Cl [Compound 73, 1,5-Bis(2,6-dichlorophenyl)-1E,4E-pentadien-3-one]
  inhibition at 1 µg/mL: 60.7%
  inhibition at 3 µg/mL: 87.1%
  inhibition at 6 µg/mL: 90.4%

## O=C1C(=Cc2ccccc2)COc2ccccc21 [Compound 66, 3-Benzylidene-4-chromanone]
  inhibition at 1 µg/mL: 12.3%
  inhibition at 3 µg/mL: 23.8%
  inhibition at 6 µg/mL: 54.3%

## O=C(C=Cc1ccc2ccccc2c1)c1ccccc1 [Compound 62, 3-(2-Naphthyl)-1-phenylpropenone]
  Percent Inhibition at a Specified Density (μg/ml): 3: 29.5%
  Percent Inhibition at a Specified Density (μg/ml): 6: 44.3%
  Percent Inhibition at a Specified Density (μg/ml): 9: 69.1%

## O=C(C=Cc1cccc2ccccc12)c1ccc2ccccc2c1 [Compound 63, 1-(2-Naphthyl)-3-(1-naphthyl)propenone]
  Percent Inhibition at a Specified Density (μg/ml): 1: 0.0%
  Percent Inhibition at a Specified Density (μg/ml): 3: 24.9%
  Percent Inhibition at a Specified Density (μg/ml): 6: 50.3%

## O=C1C(=C2C=CC=CN2)CCCC1=C1C=CC=CN1 [Compound 79, 2,6-Di(2-pyridylidene)cyclohexanone]
  inhibition at 1 µg/mL: 88.3%
  inhibition at 3 µg/mL: 92.9%
  inhibition at 6 µg/mL: 96.7%

## CC(=O)c1cc2ccccc2oc1=O [Compound 13, 3-Acetylcoumarin, reference compound]
  inhibition at 1 µg/mL: 26%
  inhibition at 3 µg/mL: 4.9%
  inhibition at 6 µg/mL: 13%

## O=C1C(=Cc2ccccc2)C(=O)c2ccccc21 [Compound 8, 2-(Benzylidene)-1,3-indanedione]
  inhibition at 1 µg/mL: 91.1%
  inhibition at 3 µg/mL: 14%
  inhibition at 6 µg/mL: 34%

## O=C(C=Cc1ccco1)c1ccco1 [Compound 43, 1,3-Bis(2-furyl)propenone]
  Percent Inhibition at a Specified Density (μg/ml): 1: 7.7%
  Percent Inhibition at a Specified Density (μg/ml): 3: 8.1%
  Percent Inhibition at a Specified Density (μg/ml): 6: 12.0%

## O=C(/C=C/c1c(F)c(F)c(F)c(F)c1F)c1c(F)c(F)c(F)c(F)c1F [Compound 34, 2,2′,3,3′,4,4′,5,5′,6,6′-Decafluorochalcone]
  inhibition at 1 µg/mL: 31.1%
  inhibition at 3 µg/mL: 88.6%
  inhibition at 6 µg/mL: 88.6%

## O=C(C=Cc1ccco1)c1ccccc1 [Compound 45, 3-(2-Furyl)-1-phenylpropenone]
  Percent Inhibition at a Specified Density (μg/ml): 1: 9.8%
  Percent Inhibition at a Specified Density (μg/ml): 3: 1.0%
  Percent Inhibition at a Specified Density (μg/ml): 6: 0.0%

## O=C(C=Cc1ccc2ccccc2c1)c1c2ccccc2cc2ccccc12 [Compound 54, 1-(9-Anthryl)-3-(2-naphthyl)propenone]
  Percent Inhibition at a Specified Density (μg/ml): 1: 52.5%
  Percent Inhibition at a Specified Density (μg/ml): 3: 57.3%
  Percent Inhibition at a Specified Density (μg/ml): 6: 48.1%

## O=C1C(=Cc2c(Cl)cccc2Cl)CCCC1=Cc1c(Cl)cccc1Cl [Compound 76, 2,6-Bis(2,6-dichlorobenzylidene)cyclohexanone]
  inhibition at 1 µg/mL: 8.4%
  inhibition at 3 µg/mL: 29.8%
  inhibition at 6 µg/mL: 27.1%

## O=C(C=Cc1ccccn1)c1ccccn1 [Compound 46, 1,3-Di(2-pyridyl)propenone]
  Percent Inhibition at a Specified Density (μg/ml): 1: 0.0%
  Percent Inhibition at a Specified Density (μg/ml): 3: 53.4%
  Percent Inhibition at a Specified Density (μg/ml): 6: 85.2%

## O=c1cc(-c2ccccc2)oc2ccccc12 [Compound 14, Flavone, reference compound]
  inhibition at 1 µg/mL: 19.3%
  inhibition at 3 µg/mL: 26.3%
  inhibition at 6 µg/mL: 46.7%

## Cc1ccc(C(=O)/C=C/c2ccc(OCc3ccccc3)cc2)cc1 [Compound 24, 4-Benzyloxy-4′-methylchalcone]
  inhibition at 1 µg/mL: 18.4%
  inhibition at 3 µg/mL: 5.1%
  inhibition at 6 µg/mL: 17%

## COc1cccc(OC)c1C(=O)/C=C/c1c(Cl)cccc1Cl [Compound 40, 2,6-Dichloro-2′,6′-dimethoxychalcone]
  inhibition at 1 µg/mL: 23.2%
  inhibition at 3 µg/mL: 43.7%
  inhibition at 6 µg/mL: 52.3%

## COc1ccc(/C=C/C(=O)c2ccc(OC)cc2)cc1 [Compound 2, 4,4′-Dimethoxychalcone]
  inhibition at 1 µg/mL: 29.1%
  inhibition at 3 µg/mL: 63.4%
  inhibition at 6 µg/mL: 85.2%

## O=C(C=Cc1ccc2ccccc2c1)c1cccc2ccccc12 [Compound 64, 1-(1-Naphthyl)-3-(2-naphthyl)propenone]
  Percent Inhibition at a Specified Density (μg/ml): 1: 0.0%
  Percent Inhibition at a Specified Density (μg/ml): 3: 22.4%
  Percent Inhibition at a Specified Density (μg/ml): 6: 52.0%

## O=C(C=Cc1ccccc1)c1cccc2ccccc12 [Compound 58, 1-(1-Naphthyl)-3-phenylpropenone]
  Percent Inhibition at a Specified Density (μg/ml): 1: 10.9%
  Percent Inhibition at a Specified Density (μg/ml): 3: 33.2%
  Percent Inhibition at a Specified Density (μg/ml): 6: 68.0%

## O=C1C(=Cc2c(Cl)cccc2Cl)COc2ccccc21 [Compound 67, 3-(2,6-Dichlorobenzylidene)chromanone]
  Percent Inhibition at a Specified Density (μg/ml): 1: 5.4%
  Percent Inhibition at a Specified Density (μg/ml): 3: 3.6%
  Percent Inhibition at a Specified Density (μg/ml): 6: 12.5%

## O=C(C=Cc1c(Cl)cccc1Cl)c1ccc2ccccc2c1 [Compound 59, 3-(2,6-Dichlorophenyl)-1-(2-naphthyl)propenone]
  Percent Inhibition at a Specified Density (μg/ml): 3: 81.0%
  Percent Inhibition at a Specified Density (μg/ml): 6: 97.4%
  Percent Inhibition at a Specified Density (μg/ml): 9: 98.3%

## Cc1ccc(C(=O)/C=C/c2ccccc2)c(C)c1 [Compound 22, 2′,4′-Dimethylchalcone]
  inhibition at 1 µg/mL: 41.7%
  inhibition at 3 µg/mL: 80.4%
  inhibition at 6 µg/mL: 87.2%

## O=C(O)Cc1ccc(C(=O)/C=C/c2ccccc2)cc1 [Compound 17, 4′-Carboxymethylchalcone]
  inhibition at 1 µg/mL: 13.7%
  inhibition at 3 µg/mL: 3.8%
  inhibition at 6 µg/mL: 29.7%

## CC(=O)C(=Cc1ccccc1)C(C)=O [Compound 9, 3-Benzylidene-2,4-pentanedione]
  inhibition at 1 µg/mL: 48.3%
  inhibition at 3 µg/mL: 72%
  inhibition at 6 µg/mL: 82.7%

## O=C(O)C=Cc1ccc(Br)cc1 [Compound 11, para-Bromocinnamic Acid, reference compound]
  inhibition at 1 µg/mL: 18.2%
  inhibition at 3 µg/mL: 3.5%
  inhibition at 6 µg/mL: 0%

## O=C1C(=Cc2cccc3ccccc23)CCc2ccccc21 [Compound 70, 2-(1-Naphthylidene)tetralone]
  Percent Inhibition at a Specified Density (μg/ml): 1: 18.7%
  Percent Inhibition at a Specified Density (μg/ml): 3: 15.9%
  Percent Inhibition at a Specified Density (μg/ml): 6: 23.6%

## O=C(/C=C/c1ccccc1)/C=C/c1ccccc1 [Compound 3, 1,5-Diphenyl-1E,4E-pentadien-3-one]
  inhibition at 1 µg/mL: 79.3%
  inhibition at 3 µg/mL: 96.8%
  inhibition at 6 µg/mL: 96.8%

## COc1cccc(OC)c1/C=C/C(=O)c1ccccc1 [Compound 39, 2,6-Dimethoxychalcone]
  inhibition at 1 µg/mL: 31.8%
  inhibition at 3 µg/mL: 56.4%
  inhibition at 6 µg/mL: 60.8%

## O=C(C=Cc1ccccc1)c1c2ccccc2cc2ccccc12 [Compound 51, 1-(9-Anthryl)-3-phenylpropenone]
  Percent Inhibition at a Specified Density (μg/ml): 1: 25.5%
  Percent Inhibition at a Specified Density (μg/ml): 3: 46.4%
  Percent Inhibition at a Specified Density (μg/ml): 6: 69.0%
